Experiments:
[1] = Number of ZnCl2 equivalents for the ligand to be entirely in the form of Zn(II) complex; format: binding; details: competition with the tris buffer and the DMSO
[2] = test system: TA98 and TA100 Salmonella strains; assay: AMES test, statements on both lines; details: adapted Ames test, TA98 and/or TA100, absence or presence of S9
Excerpt: AMES test: The method is adapted from D. M. Maron and B. N. Ames, Mutat.
The test involves evaluating the potential of the tested molecules to induce mutation which is reverse to the histidine locus of these lines. These two lines were provided by Dr. Bruce N. Ames (University of California, Berkeley, USA). They are resistant to Ampicillin and sensitive to Tetracycline. They are not mutant toward rfa, UvγV and UvγA. The line TA98 (his D3052) contains a mutation of reading phase (GC) whereas the line TA100 (his G46) contains a substitution of base pair (GC).
The compounds to be tested were dissolved in 100% of DMSO (the solvent) and diluted logarithmically (by a factor of 10) so as to obtain 4 test concentrations of 30,000; 3,000; 300 and 30 μg/ml. Each series of 0.1 ml of stock solution to be tested, 0.1 ml of test line and of culture medium with or without 0.5 ml of enzymatic homogenate (S9) of rat liver microsome were mixed with 2 ml of molten agarose (containing 0.5 mM of histidine and 0.5 mM of biotin). This mixture was placed on the surface of a plate of minimal agarose glucose medium (30 ml for each Petri dish) so as to obtain final concentrations of compound to be tested of 3,000; 300; 30 and 3 μγ/plate. The plates were then incubated at 37° C. for 48 hours. […] The revertant colonies of the test lines were counted using a colony counter (Sigma). […]

Compound	number of ZnCl2 equivalent for 15 μM of ligand to be entirely in the form of Zn(II) complex [1]	mutagenic or bactericidal effect [2]
c1cnc2c(Nc3cccc4cccnc34)cccc2c1 [Compound 12, Bis(8-quinoline)amine]	100 eq ZnCl2	
CC(C)(c1ccc2cccc(O)c2n1)c1ccc2cccc(O)c2n1 [Compound 3, 2,2′-(2,2-propanediyl)-bis(8-hydroxyquinoline)]		no mutagenic or bactericidal effect

Reference: patent US20120277265A1, “NOVEL POLYQUINOLINE DERIVATIVES AND THE THERAPEUTIC USE THEREOF” (CENTRE NATIONAL DE LA RECHERCHE SCIENTIFIQUE (C.N.R.S.), priority 2005, published 2012)
